Laboratory results published in patent publication US20060063143A1, “Immortalized hypothalamic neuronal cell lines” (priority 2002, published 2006).

Tested on: immortalized hypothalamic subclones N-7, N-22, N-29
Experiment: Functional cAMP response of immortalized subclones to peptide stimulation (RIA)
Format: cell-based, mouse
Details: cell lines N-7, N-22 and N-29; 10^-7 M (100 nM) peptide, 15 minutes, IBMX 100 μM
Text: The onset of mood disorders, such as depression or anxiety, involve the altered function of multiple loci in the brain that regulate emotionality, memory and motivation (41-43). However, the inability to describe a cellular and molecular aetiology of these conditions likely reflects, in part, the existence of critical neurological circuits not yet understood. A novel family of neuropeptides on the carboxy-terminus of the teneurin transmembrane proteins (32, 44) is implicated in neuronal communication. In one embodiment, they modulate stress responses and anxiety (data not shown) and likely play a role in some psychiatric illnesses. In another embodiment, they are implicated as modulators of cell cycle and cell proliferation. These sequences are called teneurin C-terminal-associated peptides (TCAP-1 to 4) [SEQ. ID NOs 1-9]. These peptides may also have a cleavable amidation signal at the C-terminus, such as “GRR” or “GKR”. […]
The functional cAMP response of the immortalized subclones to TCAP peptide stimulation was also assessed and the results are shown in FIG. 18. […] N-7, N-22 and N-29 were analyzed for the cAMP response to peptide stimulation. […] Cells were scraped from the plate and kept at −20° C. until the amounts of intracellular cAMP were determined in triplicate by RIA (Biotechnologies Inc., Stoughton, Mass.) according to the manufacturer's instructions.

rtTCAP-3: teneurin C-terminal-associated peptide, rainbow trout TCAP-3, SEQ ID NO 9 plus amidation signal GKR; stress-regulating peptide provided by Dr. D. Lovejoy (QLLSGRKVLGYDGYYVLSIEQYPELADSANNIQFLRQSEI; C-terminal GKR amidation signal; Trout TCAP3)
TCAP responsiveness of cell lines (cAMP response): responsive
